Laboratory results from paper PMC11413853, “Discovery of VU6007496: Challenges in the Development of an M1 Positive Allosteric Modulator Backup Candidate” (ACS Chemical Neuroscience, 2024).
Read-outs that look alike come from different tables or passages of the source.

What was measured:
[1] = GSH trapping study in human liver microsomes; format: in vitro ADME
[2] = Rat plasma and brain exposure, 100 mg/kg i.p., 3 h; format: in vivo; conditions: ip; for Kp at 3 h: brain and plasma, 100 mg/kg i.p.; for concentration at 3 h: 100 mg/kg i.p. in 30% captisol
Description: Due to the prevalence of metabolite A (VU6036463, 24) in both in vitro preparations and in vivo, we first synthesized and characterized 24. Utilizing intermediate 19 (Scheme 3), a Suzuki coupling with benzyl chloride 28 afforded a mixture of N-Boc protected analog 29 and N-H analog 29a in moderate isolated yield. Hydrolysis of the nitriles to the carboxylic acid, followed by a HATU-mediated coupling with tetrahydro-2H-pyran-4-amine delivered 24 in 81% yield over the two steps.[21] In our kinetic assays, 24 was an “active” metabolite, with the profile of an M1 ago-PAM. […] To ascertain if 24 could be the source of the adverse cholinergic events in rats, we dosed 11 and 24, in parallel, at a dose of 100 mg/kg i.p. in 30% captisol and prepared plasma and brain samples at a 3-h time point to determine brain exposure of the M1 ago-PAM 24. In this study, 11 achieved a total plasma concentration of 3.6 μM and a total brain concentration of 0.93 μM (Kp = 0.26).

[3] = Rat IV plasma:brain level cassette; format: in vivo; conditions: male, 0.25 mg/kg; for concentration at 15 min: Sprague Dawley; for Kp uu at 0.25 h / Kp at 0.25 h: Sprague-Dawley, brain and plasma, 15 min; for Kp at 0.25 h: brain:plasma
Procedure: PAMs 11 and 12 were next evaluated in our rat IV plasma: brain level cassette paradigm (0.25 mg/kg compound, 1 mg/kg total dose, 10.1% EtOH:40.4% PEG400:49.5% DMSO) sampled at a set 15 min time point to assess CNS penetration. […] As mice are the most sensitive species to cholinergic mechanisms,[11],[13],[23],[24] we placed a high-throughput phenotypic seizure liability assay into the work-flow in which potent ago-PAMs, such as 2–5,[8]−[15] display robust Racine scale 4/5 behavioral convulsions that develop within minutes of dosing and last for the 3 h duration of the study. […] In parallel, we performed electrophysiology studies in mouse native tissue layer V medial prefrontal cortex (mPFC). […] Thus, both compounds cleared the major hurdles of CNS penetration and the liability of M1 overstimulation. […]
LC/MS/MS Bioanalysis of Samples from Plasma Protein Binding and Intrinsic Clearance […]
Samples were analyzed on a Thermo Electron TSQ Quantum Ultra triple quad mass spectrometer (San Jose, CA) via electrospray ionization (ESI) with two Themo Electron Accella pumps (San Jose, CA), and a Leap Technologies CTC PAL autosampler (Carrboro, NC). Analytes were separated by gradient elution on a dual column system with two Thermo Hypersil Gold (2.1 x 30 mm, 1.9 µm) columns (San Jose, CA) thermostated at 40 °C. HPLC mobile phase A was 0.1% formic acid in water and mobile phase B was 0.1% formic acid in acetonitrile. The gradient started […]
for 0.2 min; returned to 10% B in 0.1 min. The total run time was 1.3 min and the HPLC flow rate was 0.8 mL/min. While pump 1 ran the gradient method, pump 2 equilibrated the alternate column isocratically at 10% B. Compound optimization, data collection, and processing was performed using Thermo Electron's QuickQuan software (v2.3) and Xcalibur (v2.0.7 SP1).
In vivo DMPK experimental:
Determination of brain to plasma ratio:
All animal study procedures were approved by the Institutional Animal Care and Use Committee and were conducted in accordance with the National Institutes of Health regulations of animal care covered in Principles of Laboratory Animal Care (National Institutes of Health). All rats were fasted overnight prior to testing.
For determination of the brain over plasma ratio (Kp), compounds were formulated in 8% ethanol, 32% PEG400 and 60% DMSO (v/v/v) and administered as a single 0.2 mg/kg IV dose (1 mL/kg) to male, Sprague Dawley rats (n = 1) via injection into a surgically-implanted jugular vein catheter. At 15 min post dosing, blood sample was collected into chilled, K2EDTA anticoagulant-fortified tube and immediately placed on wet ice. The blood sample was then centrifuged (1700 rcf, 5 minutes, 4 °C) to obtain plasma sample. At the same post-administration time point, whole brain sample was obtained by rapid dissection, rinsed with PBS, and immediately frozen in individual tissue collection box (dry ice). All brain and plasma samples were stored at -80 °C until […]
Sample Analysis: Concentrations in plasma and brain homogenates were quantified by liquid chromatography tandem mass spectrometry (LC-MS/MS). Whole brains were homogenized in 3 mL of 70:30 IPA:water in a mini bead beater for 3 min, and centrifuged at 3,500 g for 5 min. 5 uL of the supernatant was diluted in 15 uL of blank plasma for quantification of the analytes. Plasma samples were centrifuged at 3,500 g for 5 min. A standard curve was generated by diluting the analytes DMSO stocks with blank plasma to obtain a final concentration of 10,000 ng/ml followed by a serial dilution down to 0.5 ng/ml. Quality controls were generated by a serial dilution of the 5,000 ng/ml standard curve solution in blank plasma to obtain 3 concentrations of 500, 50, and 5 ng/ml. 20 uL of brain diluted in plasma, plasma, blank plasma, standard curve and QC samples were loaded in a V-bottom 96-well plate. 120 uL of acetonitrile containing 0.05 uM carbamazepine (internal standard) was added to each well and the plate was centrifuged at 3,500 g for 5 min. 60 […]

cardiac ion channels = assay: Electrophysiology panel of cardiac ion channels (summary); format: cell-based; conditions: 10 μM; whole panel
Description: In a 4-strain Ames assay, with and without S9, both 11 and 12 were negative.
Table S2. Effects of VU6007496 on Ion Channel Current (Charles River Study 200609.WVN)
Ion Channel Conc Mean % Standard Standard n Individual Data
(μM) Inhibition Deviation Error Points (% Inhibition)

[4] = tested on: CYP3A4, CYP1A2, CYP2C9 and CYP2D6; assay: CYP450 profile (summary over four isoforms); format: in vitro ADME; conditions: human; summary over the four isoforms; read-out: CYP450 IC50s against CYP3A4, CYP1A2, CYP2C9 and CYP2D6
[5] = IV/PO pharmacokinetics, dog; format: in vivo, dog (beagle or mongrel); conditions: for clearance / Vd / half-life: plasma, 1 mg/kg; for clearance: read-out: CLp; for Vd: read-out: Vss; for half-life: read-out: elimination t1/2 (converted)
Description: We next conducted multispecies IV/PO PK in parallel as a potential discerning data set.

[6] = brain, read-out: total brain concentration
[7] = plasma, read-out: total plasma concentration
[8] = brain, read-out: brain concentration
[9] = plasma, read-out: plasma concentration

Compound | GSH trapping, reactive intermediates [1] | Kp at 3 h [2] | concentration at 3 h [2, 6] [µM] | concentration at 3 h [2, 7] [µM] | concentration at 15 min [3, 8] [ng/g] | concentration at 15 min [3, 9] [µg/mL] | Kp uu at 0.25 h [3] | Kp at 0.25 h [3] | inhibition of cardiac ion channels (cardiac ion channels) [%] | IC50 [4] [µM] | F (%) po ([5]; dose iv/po 1/5 mg/kg) [%] | clearance ([5]; dose iv/po 1/5 mg/kg) [L/h/kg] | Vd ([5]; dose iv/po 1/5 mg/kg) [L/kg] | half-life ([5]; dose iv/po 1/5 mg/kg) [h] | F (%) po ([5]; dose iv/po 1/3 mg/kg) [%] | clearance ([5]; dose iv/po 1/3 mg/kg) [L/h/kg] | Vd ([5]; dose iv/po 1/3 mg/kg) [L/kg] | half-life ([5]; dose iv/po 1/3 mg/kg) [h]
Cn1ccc(-c2ccc(Cc3cc(C(=O)NC4CCOCC4)nc4ccn(C)c34)cc2)n1 [compound 11] | negative | 0.26 | 0.93 | 3.6 | 39 | 0.0922 | 0.36 | 0.42 | < 17 | > 16 | 35 | 0.144 | 2.2 | 12.8 |  |  |  | 
Cn1ccc(-c2ccc(Cc3cc(C(=O)NC4CCOCC4)nc4ccsc34)cc2)n1 [compound 12] | negative |  |  |  | 120 | 0.105 | 0.7 | 1.1 | < 17 | > 16 |  |  |  |  | 9 | 0.078 | 4 | 36.6
Cn1ccc2nc(C(=O)NC3CCOCC3)cc(Cc3ccc(-c4cc[nH]n4)cc3)c21 [compound 24] |  | 0.07 | 0.08 | 1.2 |  |  |  |  |  |  |  |  |  |  |  |  |  | 
